Test results published in patent US5840684A, “Glycopeptide antibiotic derivatives” (Eli Lilly and Company, priority 1995, dated 1998).
In brackets after ≈: the same amount, converted by molar mass.

Assays:
Streptococcus pyogenes = experiment: mouse protection, experimentally-induced infection; format: in vivo; details: mice infected with Streptococcus pyogenes, two doses
[1] = tested on: Staphylococcus aureus S13E; format: cell-based
Experimental: (§1) The MIC's were determined using a standard broth micro-dilution assay.

[2] = tested on: Staphylococcus aureus SA1199B; format: cell-based
Experimental: as §1

[3] = tested on: Streptococcus pneumoniae P1; experiment: broth micro-dilution MIC; format: cell-based
Experimental: (§2) The formula I compounds have in vitro and in vivo activity against Gram-positive pathogenic bacteria. The MIC's were determined using a standard broth micro-dilution assay.

Entercoccus faecium 180 = experiment: broth micro-dilution MIC; format: cell-based; details: Entercoccus faecium 180
Experimental: as §2

[4] = tested on: Enterococcus gallinarum 245; experiment: broth micro-dilution MIC; format: cell-based; details: Enterococcus gallinarum 245
Experimental: as §2

[5] = tested on: Staphylococcus haemolyticus 105; experiment: broth micro-dilution MIC; format: cell-based
Experimental: as §2

Entercoccus faecium 2041 = experiment: broth micro-dilution MIC; format: cell-based; details: Entercoccus faecium 2041
Experimental: as §2

[6] = tested on: Staphylococcus haemolyticus 415; experiment: broth micro-dilution MIC; format: cell-based
Experimental: as §2

[7] = tested on: Haemophilus influenzae RD; experiment: broth micro-dilution MIC; format: cell-based; details: Haemophilus influenzae RD
Experimental: as §2

[8] = tested on: Staphylococcus aureus X400; experiment: broth micro-dilution MIC; format: cell-based
Experimental: as §1

[9] = tested on: Staphylococcus aureus 489; experiment: broth micro-dilution MIC; format: cell-based
Experimental: as §1

[10] = tested on: Staphylococcus aureus SA1199; experiment: broth micro-dilution MIC; format: cell-based
Experimental: as §1

[11] = tested on: Entercoccus faecium 180-1; experiment: broth micro-dilution MIC; format: cell-based
Experimental: as §1

[12] = tested on: Staphylococcus aureus SA1199A; experiment: broth micro-dilution MIC; format: cell-based
Experimental: as §1

[13] = tested on: Staphylococcus aureus 446; experiment: broth micro-dilution MIC; format: cell-based
Experimental: as §1

[14] = tested on: Streptococcus pyogenes C203; experiment: broth micro-dilution MIC; format: cell-based
Experimental: as §1

[15] = tested on: Staphylococcus aureus 491; experiment: broth micro-dilution MIC; format: cell-based
Experimental: as §1

Entercoccus faecium 276 = experiment: broth micro-dilution MIC; format: cell-based
Experimental: as §1

[16] = tested on: Staphylococcus aureus X778; experiment: broth micro-dilution MIC; format: cell-based
Experimental: as §1

[17] = tested on: vancomycin-resistant enterococci; experiment: broth micro-dilution, mean geometric MIC; format: cell-based, Enterococcus faecium and Enterococcus faecalis; details: enterococci, 24-hour incubation
Streptococcus pneumoniae = experiment: mouse protection, experimentally-induced infection; format: in vivo; details: mice infected with Streptococcus pneumoniae, two doses
[18] = tested on: vancomycin-susceptible enterococci; experiment: broth micro-dilution, mean geometric MIC; format: cell-based, Enterococcus faecium and Enterococcus faecalis; details: enterococci, 24-hour incubation
[19] = tested on: Staphylococcus epidermidis 270; experiment: broth micro-dilution MIC; format: cell-based
Experimental: as §2

[20] = tested on: Staphylococcus aureus 447; experiment: broth micro-dilution MIC; format: cell-based
Experimental: as §1

Structure (SMILES) | ED50 (Streptococcus pyogenes) | MIC [1] | MIC [2] | MIC [3] | MIC (Entercoccus faecium 180) | MIC [4] | MIC [5] | MIC (Entercoccus faecium 2041) | MIC [6] | MIC [7] | MIC [11] | MIC [14] | MIC [15] | MIC (Entercoccus faecium 276) | MIC [16] | mean geometric MIC, Vancomycin Resistant Strains [17] | ED50 (Streptococcus pneumoniae) | mean geometric MIC, Vancomycin Sensitive Strains [18] | MIC [19] | MIC [20] | further results
CNC(CC(C)C)C(=O)NC1C(=O)NC(CC(N)=O)C(=O)NC2C(=O)NC3C(=O)NC(C(=O)NC(C(=O)O)c4cc(O)cc(O)c4-c4cc3ccc4O)C(OC3CC(C)(N)C(O)C(C)O3)c3ccc(c(Cl)c3)Oc3cc2cc(c3OC2OC(CO)C(O)C(O)C2OC2CC(C)(NCc3ccc(Cc4ccccc4)c(OC)c3)C(O)C(C)O2)Oc2ccc(cc2Cl)C1O (stereo not drawn) [Compound 104] | 0.12 mg/kg/2 | ≤ 0.06 µg/mL | 0.125 µg/mL (≈ 0.0693 µM) | ≤ 0.06 µg/mL | ≤ 0.06 µg/mL | 2 µg/mL (≈ 1.11 µM) | 2 µg/mL (≈ 1.11 µM) | ≤ 0.06 µg/mL | 2 µg/mL (≈ 1.11 µM) | 32 µg/mL (≈ 17.8 µM) | ≤ 0.06 µg/mL | ≤ 0.06 µg/mL | ≤ 0.06 µg/mL | ≤ 0.06 µg/mL | ≤ 0.06 µg/mL | 1.2 µg/mL | 0.041 mg/kg/2 | 0.062 µg/mL | – | – | MIC [8]: ≤ 0.06 µg/mL; MIC [9]: ≤ 0.06 µg/mL; MIC [10]: 2 µg/mL (≈ 1.11 µM); MIC [12]: ≤ 0.06 µg/mL; MIC [13]: ≤ 0.06 µg/mL
CNC(CC(C)C)C(=O)NC1C(=O)NC(CC(N)=O)C(=O)NC2C(=O)NC3C(=O)NC(C(=O)NC(C(=O)O)c4cc(O)cc(O)c4-c4cc3ccc4O)C(OC3CC(C)(N)C(O)C(C)O3)c3ccc(c(Cl)c3)Oc3cc2cc(c3OC2OC(CO)C(O)C(O)C2OC2CC(C)(NCc3cccc(Oc4cccc(C(F)(F)F)c4)c3)C(O)C(C)O2)Oc2ccc(cc2Cl)C1O (stereo not drawn) [Compound 111] | 0.099 mg/kg/2 | 1 µg/mL (≈ 0.543 µM) | 1 µg/mL (≈ 0.543 µM) | ≤ 0.06 µg/mL | ≤ 0.06 µg/mL | 4 µg/mL (≈ 2.17 µM) | 1 µg/mL (≈ 0.543 µM) | ≤ 0.06 µg/mL | 4 µg/mL (≈ 2.17 µM) | – | ≤ 0.06 µg/mL | ≤ 0.06 µg/mL | 2 µg/mL (≈ 1.09 µM) | 0.5 µg/mL (≈ 0.271 µM) | 2 µg/mL (≈ 1.09 µM) | 0.71 µg/mL | 0.084 mg/kg/2 | 0.031 µg/mL | 1 µg/mL (≈ 0.543 µM) | 1 µg/mL (≈ 0.543 µM) | MIC [8]: 1 µg/mL (≈ 0.543 µM); MIC [9]: 1 µg/mL (≈ 0.543 µM); MIC [10]: 2 µg/mL (≈ 1.09 µM); MIC [12]: 0.5 µg/mL (≈ 0.271 µM); MIC [13]: 2 µg/mL (≈ 1.09 µM)
CNC(CC(C)C)C(=O)NC1C(=O)NC(CC(N)=O)C(=O)NC2C(=O)NC3C(=O)NC(C(=O)NC(C(=O)O)c4cc(O)cc(O)c4-c4cc3ccc4O)C(OC3CC(C)(N)C(O)C(C)O3)c3ccc(c(Cl)c3)Oc3cc2cc(c3OC2OC(CO)C(O)C(O)C2OC2CC(C)(NCc3ccc(OC(F)(F)C(F)F)cc3)C(O)C(C)O2)Oc2ccc(cc2Cl)C1O (stereo not drawn) [Compound 121] | 0.041 mg/kg/2 | ≤ 0.06 µg/mL | 0.25 µg/mL (≈ 0.139 µM) | ≤ 0.06 µg/mL | ≤ 0.06 µg/mL | 2 µg/mL (≈ 1.11 µM) | 2 µg/mL (≈ 1.11 µM) | ≤ 0.06 µg/mL | 2 µg/mL (≈ 1.11 µM) | 16 µg/mL (≈ 8.9 µM) | ≤ 0.06 µg/mL | ≤ 0.06 µg/mL | ≤ 0.06 µg/mL | ≤ 0.06 µg/mL | 0.5 µg/mL (≈ 0.278 µM) | 1.0 µg/mL | 0.047 mg/kg/2 | 0.063 µg/mL | 1 µg/mL (≈ 0.556 µM) | 0.5 µg/mL (≈ 0.278 µM) | MIC [9]: 1 µg/mL (≈ 0.556 µM); MIC [10]: 1 µg/mL (≈ 0.556 µM); MIC [12]: ≤ 0.06 µg/mL; MIC [13]: 2 µg/mL (≈ 1.11 µM)
CNC(CC(C)C)C(=O)NC1C(=O)NC(CC(N)=O)C(=O)NC2C(=O)NC3C(=O)NC(C(=O)NC(C(=O)O)c4cc(O)cc(O)c4-c4cc3ccc4O)C(OC3CC(C)(N)C(O)C(C)O3)c3ccc(c(Cl)c3)Oc3cc2cc(c3OC2OC(CO)C(O)C(O)C2OC2CC(C)(NCc3cccc(OCC4CCCCC4)c3)C(O)C(C)O2)Oc2ccc(cc2Cl)C1O (stereo not drawn) [Compound 123] | 0.076 mg/kg/2 | ≤ 0.06 µg/mL | 0.5 µg/mL (≈ 0.279 µM) | ≤ 0.06 µg/mL | 0.25 µg/mL (≈ 0.139 µM) | 1 µg/mL (≈ 0.557 µM) | 2 µg/mL (≈ 1.11 µM) | ≤ 0.06 µg/mL | 1 µg/mL (≈ 0.557 µM) | 16 µg/mL (≈ 8.91 µM) | ≤ 0.06 µg/mL | ≤ 0.06 µg/mL | ≤ 0.06 µg/mL | 0.25 µg/mL (≈ 0.139 µM) | 1 µg/mL (≈ 0.557 µM) | 1.0 µg/mL | 0.039 mg/kg/2 | 0.041 µg/mL | 1 µg/mL (≈ 0.557 µM) | 1 µg/mL (≈ 0.557 µM) | MIC [8]: 1 µg/mL (≈ 0.557 µM); MIC [9]: 2 µg/mL (≈ 1.11 µM); MIC [10]: 2 µg/mL (≈ 1.11 µM); MIC [13]: 2 µg/mL (≈ 1.11 µM)
C=CCCCCCCCCCNC1(C)CC(OC2C(Oc3c4cc5cc3Oc3ccc(cc3Cl)C(OC3CC(C)(N)C(O)C(C)O3)C3NC(=O)C(NC(=O)C5NC(=O)C(CC(N)=O)NC(=O)C(NC(=O)C(CC(C)C)NC)C(O)c5ccc(c(Cl)c5)O4)c4ccc(O)c(c4)-c4c(O)cc(O)cc4C(C(=O)O)NC3=O)OC(CO)C(O)C2O)OC(C)C1O (stereo not drawn) [Compound 204] | < 0.031 mg/kg/2 | 0.5 µg/mL (≈ 0.287 µM) | – | ≤ 0.06 µg/mL | – | – | 0.5 µg/mL (≈ 0.287 µM) | ≤ 0.06 µg/mL | – | 2 µg/mL (≈ 1.15 µM) | – | ≤ 0.06 µg/mL | 0.5 µg/mL (≈ 0.287 µM) | ≤ 0.06 µg/mL | 0.5 µg/mL (≈ 0.287 µM) | 0.71 µg/mL | 0.046 mg/kg/2 | 0.031 µg/mL | ≤ 0.06 µg/mL | ≤ 0.06 µg/mL | –
CNC(CC(C)C)C(=O)NC1C(=O)NC(CC(N)=O)C(=O)NC2C(=O)NC3C(=O)NC(C(=O)NC(C(=O)O)c4cc(O)cc(O)c4-c4cc3ccc4O)C(OC3CC(C)(N)C(O)C(C)O3)c3ccc(c(Cl)c3)Oc3cc2cc(c3OC2OC(CO)C(O)C(O)C2OC2CC(C)(NCc3ccc(-c4ccc(Br)cc4)cc3)C(O)C(C)O2)Oc2ccc(cc2Cl)C1O (stereo not drawn) [Compound 230] | 0.046 mg/kg/2 | 0.5 µg/mL (≈ 0.272 µM) | – | ≤ 0.06 µg/mL | ≤ 0.06 µg/mL | 4 µg/mL (≈ 2.18 µM) | 1 µg/mL (≈ 0.544 µM) | ≤ 0.06 µg/mL | 2 µg/mL (≈ 1.09 µM) | 32 µg/mL (≈ 17.4 µM) | ≤ 0.06 µg/mL | ≤ 0.06 µg/mL | – | ≤ 0.06 µg/mL | – | 0.35 µg/mL | 0.078 mg/kg/2 | 0.031 µg/mL | 0.5 µg/mL (≈ 0.272 µM) | 0.5 µg/mL (≈ 0.272 µM) | MIC [8]: 0.5 µg/mL (≈ 0.272 µM); MIC [12]: ≤ 0.06 µg/mL
